Assay results taken from patent US20230075138A1 (priority 2021, published 2023).

Tests used:
[1] = system: COVID-19; assay: Kaplan-Meier survival of COVID-19 positive patients hospitalized at the Mayo Clinic, by drug cohort; format: in vivo, human
[2] = system: COVID-19; assay: IL-6 level / ICU duration quadrants of COVID-19 ICU patients after therapeutic administration; format: in vivo, human; conditions: for patient count in quadrant Q2 / proportion of patients in quadrant Q2: Q2: ICU ≥15 days or deceased and IL-6 <10 pg/mL; for patients in Q3: Q3: ICU <15 d and IL-6 ≥10 pg/mL; for Proportion of Group − Proportion of Other: cohort vs patients not taking the drug class
Experimental: Four categories of patient IL-6 level/ICU stay length were defined (i.e. the 4 quadrants described in Table 2). For each drug class with at least 10 patients, and for each quadrant with nonzero number of patients, the proportion of patients in the quadrant out of those taking a drug from the class were compared to the proportion of patients in the quadrant out of those not taking a drug from the class. Fisher exact test was performed to compute p-values on these proportion comparisons. A Benjamini-Hochberg adjustment was also applied to these p-values for multiple hypotheses.
Because only 10 patients met the aforementioned criteria, 10 additional COVID positive, ICU patients who only had IL-6 measured post-corticosteroid administration were also examined. Their IL-6 levels were plotted against the duration of ICU stay (see FIG. 3). Similarly, patients who received tocilizumab (n=5), azithromycin (n=49), hydroxychloroquine (n=10), and antivirals (lopinavir-ritonavir and ribavirin, n=4) were also examined. Patients were grouped into the following four categories based on IL-6 level, ICU status, and mortality: • (Q1) ICU<15 d and IL-6<10 pg/mL, • (Q2) ICU≥15 d or deceased and IL-6<10 pg/mL, • (Q3) ICU<15 d and IL-6≥10 pg/mL, and • (Q4) ICU≥15 d or deceased and IL-6≥10 pg/mL. […] As a corollary, corticosteroids have fewer patients (30%, n=20) in Q3 compared to tocilizumab (80%, n=5), azithromycin (61%, n=49), and hydroxychloroquine (60%, n=10). (See Table 2)

[3] = all hospitalized COVID-19 patients
[4] = COVID-19 patients requiring ICU admission
[5] = Q1: ICU <15 days and IL-6 <10 pg/mL
[6] = Q3: ICU <15 days and IL-6 ≥10 pg/mL
[7] = Q4: ICU ≥15 days or deceased and IL-6 ≥10 pg/mL

Compound | survival rate at 60 days post-diagnosis [1, 3] | survival rate at 60 days post-diagnosis [1, 4] | patient count in quadrant Q1 [2, 5] | patient count in quadrant Q2 [2] | proportion of patients in quadrant Q2 [2] | patients in Q3 [2] | patient count in quadrant Q3 [2, 6] | patient count in quadrant Q4 [2, 7] | other results
C[C@]12CCC(=O)C=C1CC[C@@H]1[C@@H]2[C@@H](O)C[C@@]2(C)[C@H]1CC[C@]2(O)C(=O)CO [hydrocortisone] | 79% |  |  |  |  |  |  |  | 
CCN(CCO)CCCC(C)Nc1ccnc2cc(Cl)ccc12 (stereo not drawn) [hydroxychloroquine] |  | 100% | 2 | 0 | (0) | 60% | 6 | 2 | Proportion of Group − Proportion of Other ([2]; quadrant Q1): 0.08; Proportion of Group − Proportion of Other ([2]; quadrant Q3): 0.05; Proportion of Group − Proportion of Other ([2]; quadrant Q4): −0.13
C[C@@H]1C[C@H]2[C@@H]3CCC4=CC(=O)C=C[C@]4(C)[C@@]3(F)[C@@H](O)C[C@]2(C)[C@@]1(O)C(=O)CO [dexamethasone] | 90% | 72% |  |  |  |  |  |  | 
CC[C@H]1OC(=O)[C@H](C)[C@@H](O[C@H]2C[C@@](C)(OC)[C@@H](O)[C@H](C)O2)[C@H](C)[C@@H](O[C@@H]2O[C@H](C)C[C@H](N(C)C)[C@H]2O)[C@](C)(O)C[C@@H](C)CN(C)[C@H](C)[C@@H](O)[C@]1(C)O [azithromycin] | 93% | 92% | 4 | 0 | (0) | 61% | 30 | 15 | Proportion of Group − Proportion of Other ([2]; quadrant Q1): −0.10; Proportion of Group − Proportion of Other ([2]; quadrant Q3): 0.17; Proportion of Group − Proportion of Other ([2]; quadrant Q4): −0.07
tocilizumab |  |  | 0 | 0 | (0) | 80% | 4 | 1 | survival 60 days post diagnosis (in words) ([1]; hospitalized COVID-19 patients): all 11 hospitalized patients receiving tocilizumab survived; proportion of patients in quadrant Q1 [2, 5]: (0); proportion of patients in quadrant Q3 [2, 6]: (0.8); proportion of patients in quadrant Q4 [2, 7]: (0.2)
C[C@]12C=CC(=O)C=C1CC[C@@H]1[C@@H]2C(=O)C[C@@]2(C)[C@H]1CC[C@]2(O)C(=O)CO [prednisone] | 92% |  |  |  |  |  |  |  | 
C[C@H]1C[C@@H]2[C@H]([C@@H](O)C[C@@]3(C)[C@H]2CC[C@]3(O)C(=O)CO)[C@@]2(C)C=CC(=O)C=C12 [methylprednisolone] |  |  |  |  |  |  |  |  | survival rate at 60 days post-diagnosis ([1]; human, in vivo): 77%
